Results on 37 compounds are retold here after article PMC3409115, “Diverse Inhibitor Chemotypes Targeting Trypanosoma cruzi CYP51” (PLoS Neglected Tropical Diseases, 2012).

The subject of series [1] is T. cruzi-infected skeletal myoblasts (intracellular amastigotes). Nature of the series: Hit cross-validation in T. cruzi-infected mammalian cells (image-based assay). In kind it is cell-based, Trypanosoma cruzi. The settings on record: read-out: EC50 against T. cruzi parasites in HTS assay used to rank order the hits. On the procedure:
Bovine embryo skeletal muscle cells or mouse C2C12 myoblasts (ATCC#CRL-1772) used in the cross-validation assay, were cultivated respectively in RPMI 1640 medium supplemented with 5% horse serum and Dulbecco's Modified Eagle's Medium H-21 containing 4.5 g/l glucose (DMEM H-21) (Cell Culture Facility, UCSF), supplemented with 5% fetal bovine serum (FBS) (Sigma Chemical Co., St. Louis, MO, USA), 25 mM HEPES, 2 mM L-glutamine, 100 U/ml penicillin, 100 µg/ml streptomycin. T. cruzi CAI-72 trypomastigotes were obtained from supernatant of infected cultures 4 to 7 days post-infection. Cultures were maintained at 37°C in an atmosphere of 5% CO2. To harvest parasites, the supernatant of infected cultures containing released trypomastigotes was collected and centrifuged at 600 rpm for 5 min to remove cell debris; the pellet was then discarded and the trypomastigotes remaining in the media were concentrated by spinning the culture tubes at 3300 rpm for 15 minutes. The parasite pellet was re-suspended in 2–5 ml of fresh media. Trypomastigote concentration was determined using a Neubauer hemocytometer.
(§1) Compound cross-validation in T. cruzi infected skeletal myoblasts (bovine embryo skeletal muscle or C2C12 lineage) was performed according to the protocol adapted from Engel and co-authors. Compounds stored as 10 mM stocks in DMSO were freshly diluted immediately prior to use. […] To prepare plates for the assay, skeletal myoblasts cultured in […] flasks were washed once with phosphate buffered saline (PBS) and then incubated with 0.25% trypsin in PBS for 1–3 minutes for detachment. The trypsin solution was removed and myoblasts were released from the flask bottom. Fresh medium was added and cell concentration was determined using a Neubauer hemocytometer. Myoblasts in 50 µl of culture medium were transferred to the clear-bottom wells of black 96-well plates (Greiner Bio-One, #655090) at a density of 1500 cells/well and infected with 50 µl trypomastigote culture at 7500 parasites/well (1∶5 ratio). The cells were allowed to adhere and spread for 24 h in the incubator before the media was removed and 100 µl of fresh medium containing 0, 0.04, 0.12, 0.37, 1.10, 3.30 or 10 µM of test compound was added to each well, followed by 72 h incubation at 37°C in an atmosphere of 5% CO2. Posaconazole was used as a positive control at the same concentrations as the test compounds. The cells were then fixed by adding 100 µl/well of 8% formaldehyde in PBS, resulting in a 4% working concentration of formaldehyde. To stain the nucleus of the host cell and the nucleus and kinetoplast of parasites, cell membranes were first permeabilized by washing once with 100 µl of 0.1% Triton X-100 in PBS, then treated for 1 h with 0.2 µg/ml of the fluorescent DNA dye, 4,6-diamidino-2-phenylindole (DAPI), followed by one wash with PBS. The fixed plates were kept at 4°C and protected from light until images were acquired.
(§2) Plates were allowed to equilibrate to room temperature and images were acquired by the IN Cell Analyzer 2000 (GE Healthcare) with a 20× objective, 5 fields per well, with 350/50 nm and 460/40 nm fluorescent excitation and emission filters. In the absence of drug cytotoxicity, at least 800 cells were imaged and counted per well. The images were processed and analyzed by IN Cell Analyzer Developer 1.6 software. The size parameters used to segment host and parasite organelles were 125 µm^2 for host nucleus, and 1–2 µm^2 for parasite nucleus/kinetoplast. Since DAPI also strongly stains host heterochromatin regions that display as shapes resembling parasites ( Figure 3 ), particles co-localized to host nuclei were excluded from quantification, while parasite aggregates near the host nucleus were counted as infected cells.

The subject of series [2] is host cell (skeletal myoblasts, bovine embryo skeletal muscle or C2C12). Put plainly: Host cell toxicity in the cross-validation assay. In kind it is cell-based. The settings on record: host cells in cross-validation assay, up to 10 µM. As to the method:
as §1
as §2, with “cells. Numbers of host cells and intracellular amastigotes were determined based on host cell and parasite nucleus and parasite kinetoplast quantification, providing a measure of growth inhibition during the first 72 h of post-infection treatment compared to untreated controls.” for “cells.”
^aToxicity was assessed as the highest percentage of host cell growth inhibition caused by compound treatment. Scores are assigned as 1-<20%; 2-21-30%; 3- 31-40%; 4-41-50% and 5->50% growth inhibition.

A further series deals with T1, T. cruzi CYP51 (Trypanosoma cruzi, UniProt Q7Z1V1).
T1 construct: had the first 21 residues upstream of K22 replaced with the fragment MAKKKKK; His6 (C); made in house
T1 sequence (Q7Z1V1 15-481, looked up, natural form): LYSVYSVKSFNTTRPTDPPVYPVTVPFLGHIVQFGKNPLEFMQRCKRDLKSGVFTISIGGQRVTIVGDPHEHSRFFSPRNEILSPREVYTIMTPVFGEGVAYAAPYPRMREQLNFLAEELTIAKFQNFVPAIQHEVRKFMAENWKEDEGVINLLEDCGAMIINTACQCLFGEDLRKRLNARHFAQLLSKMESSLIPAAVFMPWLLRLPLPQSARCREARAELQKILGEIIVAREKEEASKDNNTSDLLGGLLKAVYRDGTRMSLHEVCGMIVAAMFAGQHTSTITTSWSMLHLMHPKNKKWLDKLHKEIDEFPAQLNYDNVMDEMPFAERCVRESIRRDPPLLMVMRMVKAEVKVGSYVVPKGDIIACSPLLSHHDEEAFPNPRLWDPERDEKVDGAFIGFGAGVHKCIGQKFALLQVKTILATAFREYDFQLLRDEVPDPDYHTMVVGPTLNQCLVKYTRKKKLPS
Put plainly: HTS spectral-mode binding screen, type II difference spectra scored 0-5.

[3] abbreviates: T. cruzi-infected myoblasts, 72 h treatment.
Setting [4] is: Trypanosoma cruzi, Myoblast, 72 h, T. cruzi-infected myoblasts, 72 h treatment.
[5] abbreviates: Trypanosoma cruzi, Myoblast, 72 h.
Setting [6] is: spectral mode, four serial dilutions 2 µM to 12.5 µM, 2 µM CYP51.

Like-named read-outs stand apart in the source and are kept apart here.

Regarding `Cc1ccc(OCCCCCn2ccnc2)cc1C` [Compound 4], the concentration giving a half-maximal response (EC50) in series [1] (setting [3]) was 0.548 µM; in series [1] (setting [4]), 0.55 µM. The “Toxicity score (highest percentage of host cell growth inhibition)” value in series [2] was 3 (3- 31-40%).

Regarding `CC(C)(C)/C(=C\n1ccnc1)c1ccc(C(F)(F)F)cc1` [Compound 8], the EC50 in series [1] (setting [3]) stood at 0.754 µM; in series [1] (setting [4]), 0.75 µM. The “Toxicity score (highest percentage of host cell growth inhibition)” value in series [2] is 3 (3- 31-40%).

For `Cc1ccc(/C(=C\n2ccnc2)c2ccccc2)cc1` [Compound 10], the EC50 in series [1] (setting [3]) turned out to be 0.92 µM; in series [1] (setting [4]) it was 0.95 µM. Also, the “Toxicity score (highest percentage of host cell growth inhibition)” value in series [2] is 4 (4-41-50%).

On to `CCn1c(C(=O)NCc2cccnc2)cc2oc3ccccc3c21` [Compound 16], for which the concentration for a half-maximal effect (EC50) in series [1] (setting [5]) worked out at 2.2 µM. Moreover, the “Toxicity score (highest percentage of host cell growth inhibition)” value in series [2] was 4 (4-41-50%).

Consider `Cc1ccc(C)c(OCCCCn2ccnc2)c1` [Compound 17], for which, in series [1] (setting [4]), the EC50 was found to be 2.36 µM. This compound also had an HTS binding score at T. cruzi CYP51 (setting [6]) of 4.

Consider `O=C(NCCc1ccncc1)Nc1ccc(Cl)c(Cl)c1` [Compound 20], for which, in series [1] (setting [5]), the EC50 was 2.55 µM. Moreover, the “Toxicity score (highest percentage of host cell growth inhibition)” value in series [2] is recorded as 1 (1-<20%).

As for `COc1cccc(/C=C/c2ccncc2)c1OC` [Compound 24], the EC50 in series [1] (setting [5]) amounted to 2.98 µM. On T. cruzi CYP51 (setting [6]), the HTS binding score is given as 2.

Take `Brc1ccc(OCCCn2ccnc2)cc1` [Compound 25]: the EC50 in series [1] (setting [4]) turned out to be 3.66 µM. The “Toxicity score (highest percentage of host cell growth inhibition)” value in series [2] is listed as 2 (2-21-30%).

With `O=C(Cn1ccnc1)c1ccc(Cl)cc1Cl` [Compound 26], the EC50 in series [1] (setting [5]) is 4.53 µM. The compound also displayed an HTS binding score on T. cruzi CYP51 (setting [6]) of 2.

For the compound `CCO/C(O)=C1/C(C)=NC2=C(C(=O)CC(c3ccccc3)C2)C1c1cccnc1` (stereo not shown) [Compound 28], the EC50 in series [1] (setting [4]) came out at 5 µM. This compound also registered an HTS binding score on T. cruzi CYP51 (type II difference spectra scored 0-5, second highest rated hit compound cluster) of 4.

With `CCCC/N=C(\S)N1CCn2cccc2C1c1cccnc1` (stereo not shown) [Compound 30], in series [1] (setting [5]), the EC50 was found to be 6.33 µM.

On to `O=S(=O)(NCc1csc(-c2cccnc2)n1)c1ccc(Br)cc1` [Compound 32], for which, in series [1] (setting [5]), the EC50 stood at 6.5 µM. Also, the “Toxicity score (highest percentage of host cell growth inhibition)” value in series [2] was 2 (2-21-30%).

Take `C/C(=N\OC(=O)c1c(-c2ccccc2Cl)noc1C)c1ccncc1` [Compound 33]: in series [1] (setting [5]), the EC50 turned out to be 6.78 µM. The “Toxicity score (highest percentage of host cell growth inhibition)” value in series [2] was 3 (3- 31-40%).

As for `CC(C)/C=C1\CC/C(=C\c2ccncc2)C1=O` [Compound 35], the 50% effective concentration (EC50) in series [1] (setting [5]) amounted to 7.15 µM. The “Toxicity score (highest percentage of host cell growth inhibition)” value in series [2] is 1 (1-<20%).

With `Oc1cccc(Nc2nc(-c3ccncc3)cs2)c1` [Compound 37], in series [1] (setting [5]), the EC50 was determined as 7.33 µM. The “Toxicity score (highest percentage of host cell growth inhibition)” value in series [2] is on record as 4 (4-41-50%).

For the compound `Clc1ccc(Cl)c(SCCc2ccncc2)c1` [Compound 38], in series [1] (setting [5]), the EC50 came out at 7.41 µM. Besides, the “Toxicity score (highest percentage of host cell growth inhibition)” value in series [2] was 2 (2-21-30%).

For the compound `Cc1ccc2nc(NC(=O)C3CCN(S(=O)(=O)c4cccnc4)CC3)sc2c1` [Compound 39], the EC50 in series [1] (setting [5]) turned out to be 7.64 µM. Moreover, in series [2], the “Toxicity score (highest percentage of host cell growth inhibition)” value was 1 (1-<20%).

For the compound `O=C(/C(=C/c1ccc(F)cc1)n1cncn1)c1ccc(Cl)cc1Cl` [Compound 43], the half-maximal effective concentration (EC50) in series [1] (setting [5]) was 7.8 µM. In addition, the “Toxicity score (highest percentage of host cell growth inhibition)” value in series [2] was 3 (3- 31-40%).

Take `O=C(Cc1coc2ccc3ccccc3c12)NCc1cccnc1` [Compound 44]: the EC50 in series [1] (setting [5]) was 7.93 µM. In addition, in series [2], the “Toxicity score (highest percentage of host cell growth inhibition)” value is recorded as 2 (2-21-30%).

Take `Cc1ccc(C)c(CN2CCCCC2c2cccnc2)c1` (stereo not shown) [Compound 48]: the EC50 in series [1] (setting [5]) stood at 8.24 µM. The HTS binding score at T. cruzi CYP51 (setting [6]) stood at 4.

As for `O=C(NCc1cccnc1)/C(=C\c1cccc(Oc2ccccc2)c1)S(=O)(=O)c1ccccc1` [Compound 52], in series [1] (setting [5]), the EC50 is 8.99 µM. Besides, in series [2], the “Toxicity score (highest percentage of host cell growth inhibition)” value is given as 5 (5->50% growth inhibition).

With `CC1=Nc2ncnn2C(c2cccnc2)/C1=C(\O)OC1CCCCC1` (stereo not shown) [Compound 55], in series [1] (setting [5]), the EC50 amounted to 9.54 µM. Besides, in series [2], the “Toxicity score (highest percentage of host cell growth inhibition)” value is recorded as 1 (1-<20%).

`COc1ccc(-c2nc3n(n2)C(c2cccs2)C(C(=O)Nc2cccnc2)=C(C)N3)cc1` (stereo not shown) [Compound 170]: the HTS binding score on T. cruzi CYP51 (setting [6]) was 4.

`COc1cc(OC)cc(-c2cc3nc(C)c(CCC(=O)NCc4cccnc4)c(C)n3n2)c1` [Compound 171] yielded an HTS binding score on T. cruzi CYP51 (setting [6]) of 5.

`Cc1ccc(S(=O)(=O)N(CC(=O)Nc2cccnc2)c2cccc(C(F)(F)F)c2)cc1` [Compound 172]: the HTS binding score at T. cruzi CYP51 (setting [6]) stood at 4.

For the compound `O=C(CN(c1ccc(Cl)cc1Cl)S(=O)(=O)c1ccccc1)NCc1ccncc1` [Compound 173], on T. cruzi CYP51 (setting [6]), the HTS binding score turned out to be 4.

For `COc1ccc(-c2noc(CSc3nnc(-c4ccncc4)n3CC(C)C)n2)cc1OC` [Compound 174], at T. cruzi CYP51 (setting [6]), the HTS binding score is reported as 4.

Compound `COC(=O)C1=C(N)Oc2cc(C)n(CCCn3ccnc3)c(=O)c2C1c1ccc(Cl)cc1` (stereo not shown) [Compound 175] displayed an HTS binding score on T. cruzi CYP51 (setting [6]) of 4.

In turn, `CC(C)(C)NC(=O)c1cccc(NC(=O)c2ccc3c(c2)C(=O)N(Cc2cccnc2)C3=O)c1` [Compound 176] registered an HTS binding score on T. cruzi CYP51 (setting [6]) of 4.

`COc1cc(NS(=O)(=O)c2ccc(Nc3nc(-c4cccnc4)cs3)cc2)nc(OC)n1` [Compound 177] came in with an HTS binding score at T. cruzi CYP51 (setting [6]) of 4.

Consider `O=C(NCc1cccnc1)/C(=C\c1cccc(Oc2ccccc2)c1)S(=O)(=O)c1ccccc1` [Compound 178], for which the HTS binding score at T. cruzi CYP51 (setting [6]) is 4.

On T. cruzi CYP51 (setting [6]), `CC1=C(C(=O)Nc2cccnc2)C(c2cccc(O)c2)n2nc(SCc3ccccc3)nc2N1` (stereo not shown) [Compound 179] returned an HTS binding score of 4.

On to `Cc1ccc(S(=O)(=O)N(CC(=O)NCc2cccnc2)c2cccc(Br)c2)cc1` [Compound 180], for which the HTS binding score at T. cruzi CYP51 (setting [6]) came out at 4.

On to `C=CCOc1ccc(C2c3c(-c4ccccc4O)n[nH]c3C(=O)N2Cc2ccncc2)cc1OCC` (stereo not shown) [Compound 181], for which, at T. cruzi CYP51 (setting [6]), the HTS binding score was 5.

Regarding `COc1cccc(C2C(C(=O)Nc3cccnc3)=C(C)Nc3nc(-c4cccc(C)c4)nn32)c1OC` (stereo not shown) [Compound 182], at T. cruzi CYP51 (setting [6]), the HTS binding score worked out at 4.

Regarding `CC1=C(C(=O)Nc2ccccc2)C(c2cccnc2)C(C#N)=C(SCC(=O)Nc2ccc(F)cc2)N1` (stereo not shown) [Compound 184], at T. cruzi CYP51 (setting [6]), the HTS binding score was determined as 5.

Compound `COc1cc2c(cc1OC)C(C(=O)N1CCC(Cc3ccccc3)CC1)C(c1cccnc1)N(C)C2=O` (stereo not shown) [Compound 185] had an HTS binding score at T. cruzi CYP51 (setting [6]) of 4.
